Calls of active or inactive are those of the source.
Experiments:
[1] = Luminescence Cell-Based Dose Confirmation HTS to Identify Activators of 5'UTR Stem-Loop Driven Alpha-Synuclein mRNA Translation in H4 Neuroglioblastoma Cells. [Related pubchem assays: 1829 (Project Summary), 1814 (Primary HTS)]; type: functional
[2] = Luminescence Cell-Based Dose Response HTS to Identify Activators of Luciferase Translation or Activity in H4 […] Cells. [Related pubchem assays: 1829 (Project Summary), 1814 (Primary HTS)]; type: functional
[3] = biological target: T1, Sphingosine 1-phosphate receptor 4 (Homo sapiens, UniProt O95977); assay: Late stage fluorescence dose response cell-based screening assay for antagonists of the Sphingosine 1-Phosphate Receptor 4 (S1P4). [Related pubchem assays: 1524 (Confirmation screen (S1P4 antagonists).), 1510 (Primary screen (S1P4 antagonists).), 1853 (Summary AID (S1P4 antagonists).), 1692 (Dose response screen (S1P4 antagonists).)]; type: functional
T1 sequence (O95977 whole entry): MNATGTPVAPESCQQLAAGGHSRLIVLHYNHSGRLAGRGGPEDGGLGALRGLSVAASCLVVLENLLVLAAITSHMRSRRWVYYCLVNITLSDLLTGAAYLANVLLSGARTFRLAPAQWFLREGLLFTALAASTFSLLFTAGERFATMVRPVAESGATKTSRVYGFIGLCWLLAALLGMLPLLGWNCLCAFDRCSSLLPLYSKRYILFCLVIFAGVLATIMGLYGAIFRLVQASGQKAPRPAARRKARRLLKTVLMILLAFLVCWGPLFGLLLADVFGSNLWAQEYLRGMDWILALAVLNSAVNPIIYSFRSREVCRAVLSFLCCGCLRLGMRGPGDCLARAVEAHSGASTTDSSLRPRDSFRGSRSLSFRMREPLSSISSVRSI

[4] = biological target: T1, Sphingosine 1-phosphate receptor 4; assay: Fluorescence dose response cell-based high throughput screening assay for antagonists of the Sphingosine 1-Phosphate Receptor 4 (S1P4). [Related pubchem assays: 1524 (Confirmation in triplicates.), 1510 (Primary screen.)]; type: functional
[5] = biological target: Sphingosine 1-phosphate receptor 1 (Homo sapiens, UniProt P21453); type: functional;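 note: Tango beta-arrestin reporter U2OS cells stimulated with S1P near its EC80; inhibitor potency meaning antagonism of receptor activation by the natural agonist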
Sphingosine 1-phosphate receptor 1, sequence (P21453 whole entry): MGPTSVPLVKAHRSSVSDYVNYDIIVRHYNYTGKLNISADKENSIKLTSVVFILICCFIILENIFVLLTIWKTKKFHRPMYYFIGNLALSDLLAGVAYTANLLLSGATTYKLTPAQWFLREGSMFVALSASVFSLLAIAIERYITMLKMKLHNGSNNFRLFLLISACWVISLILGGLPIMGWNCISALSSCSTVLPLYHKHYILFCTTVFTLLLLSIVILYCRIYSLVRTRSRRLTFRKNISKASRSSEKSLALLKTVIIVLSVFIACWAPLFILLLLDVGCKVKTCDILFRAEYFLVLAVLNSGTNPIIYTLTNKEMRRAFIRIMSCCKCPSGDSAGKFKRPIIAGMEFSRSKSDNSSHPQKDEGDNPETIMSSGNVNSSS

[6] = HepG2 cell cytotoxicity, dose response, cytotoxicity control for non-replicating M. tuberculosis project (AID 489018); type: functional; details: Mycobacterium tuberculosis
[7] = cells; type: functional
[8] = system: CHO; assay: cytotoxicity in TLR9-MyD88 CHO cells, dose response, cytotoxicity control for TLR9-MyD88 binding inhibitor project, cell-based, luminescence (AID 588339); type: functional, hamster; details: Cricetulus griseus;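 note: CHO cells stably coexpressing TLR9 and MyD88 fusions from primary screen; compound exposure lasted 48 hours before viability readout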
[9] = biological target: Beta Lactamase (Pseudomonas aeruginosa, UniProt Q932Y6); assay: beta-lactamase reporter inhibitor potency, dose response, artefact control for TLR9-MyD88 binding inhibitor project, BLA reporter cells, FRET fluorescence (AID 588341); type: cell-based;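 note: cell based assay in CHO-K1 cells stably expressing beta-lactamase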
Beta Lactamase, sequence (Q932Y6 whole entry): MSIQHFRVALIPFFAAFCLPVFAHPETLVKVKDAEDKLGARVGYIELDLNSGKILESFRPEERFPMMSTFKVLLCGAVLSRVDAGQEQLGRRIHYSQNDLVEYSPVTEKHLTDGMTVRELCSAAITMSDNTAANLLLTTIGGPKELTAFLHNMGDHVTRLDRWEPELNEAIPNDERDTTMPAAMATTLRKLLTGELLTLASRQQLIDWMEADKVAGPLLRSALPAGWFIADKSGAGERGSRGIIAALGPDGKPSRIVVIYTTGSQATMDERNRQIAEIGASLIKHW

[10] = biological target: T2, SUMO-activating enzyme (Homo sapiens, UniProt Q9UBT2); assay: SUMOylation inhibitor hit validation, confirmation, SUMOylation inhibitor project, biochemical, AlphaScreen (AID 2018); type: functional
T2 sequence (Q9UBE0 whole entry): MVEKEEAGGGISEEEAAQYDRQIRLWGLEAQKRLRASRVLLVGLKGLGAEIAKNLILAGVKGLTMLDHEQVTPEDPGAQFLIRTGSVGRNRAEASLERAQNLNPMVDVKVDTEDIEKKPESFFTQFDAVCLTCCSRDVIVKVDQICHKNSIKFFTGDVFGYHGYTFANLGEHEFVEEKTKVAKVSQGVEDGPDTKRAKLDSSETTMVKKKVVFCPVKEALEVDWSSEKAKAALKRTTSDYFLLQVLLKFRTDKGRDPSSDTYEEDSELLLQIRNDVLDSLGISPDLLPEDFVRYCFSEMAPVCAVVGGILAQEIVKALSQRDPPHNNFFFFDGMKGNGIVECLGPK
T2 sequence (Q9UBT2 whole entry): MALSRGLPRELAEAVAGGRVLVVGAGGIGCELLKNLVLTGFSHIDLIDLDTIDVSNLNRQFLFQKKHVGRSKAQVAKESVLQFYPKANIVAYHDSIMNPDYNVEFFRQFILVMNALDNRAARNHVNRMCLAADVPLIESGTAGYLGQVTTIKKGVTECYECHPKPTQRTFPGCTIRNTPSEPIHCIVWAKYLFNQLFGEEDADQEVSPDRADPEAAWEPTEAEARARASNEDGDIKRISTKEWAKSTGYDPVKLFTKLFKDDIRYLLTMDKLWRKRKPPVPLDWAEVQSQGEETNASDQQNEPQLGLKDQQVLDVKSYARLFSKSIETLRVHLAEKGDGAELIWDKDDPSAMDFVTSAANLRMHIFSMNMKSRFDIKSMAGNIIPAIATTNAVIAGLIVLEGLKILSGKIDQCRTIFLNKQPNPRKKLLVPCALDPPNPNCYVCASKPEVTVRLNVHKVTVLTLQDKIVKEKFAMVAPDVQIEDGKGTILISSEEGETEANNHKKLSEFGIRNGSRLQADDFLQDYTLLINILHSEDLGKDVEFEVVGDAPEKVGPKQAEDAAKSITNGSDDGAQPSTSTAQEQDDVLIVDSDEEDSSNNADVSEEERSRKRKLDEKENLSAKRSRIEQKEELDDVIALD

[11] = biological target: T2, SUMO-activating enzyme; assay: inhibitors of in vitro SUMOylation cascade, primary screen, biochemical, HTRF, uHTS (AID 2006); type: protein-complex assay

SMILES	EC50 [1]	EC50 [2]	IC50 [3]	IC50 [4]	IC50 [5]	CC50 [6]	IC50 [7]	IC50 [8]	IC50 [9]	IC50 [10]	IC50 [11]
O=C(Nc1ccccc1)c1nnsc1[S+]([O-])c1ccc(Cl)cc1 (stereo unspecified)	8.7 µM (active)	4.31 µM (active)	12 µM (not active)	1.15 µM (active)	> 49.8 µM (not active)	19.1 µM (active)	13.1 µM (active)	3.46 µM (active)	11.9 µM (inactive)		
O=C1C=C(Nc2ccccc2)c2ccccc2C1=O										1.47 µM (active)	20.7 µM (active)

Source: ChEMBL document CHEMBL1201862, “PubChem BioAssay data set” (2004)
